Experimental data reported in patent US4312870A, “Pyrazoloquinolines” (Ciba-Geigy Corporation, priority 1980, dated 1982).
pIC50: −log10 of the molar value.

Molecular target: Diazepam Receptor
Experiment: Diazepam Receptor Binding Assay in vitro (tritiated diazepam, rat fore-brain membranes)
Settings: membranes from rat fore-brain, 0°-5°, pH=7.5, determined graphically; read-out: IC50, concentration required to inhibit the specific binding of 2 nM of tritiated diazepam by 50%
Experimental: The anxiolytic effects of said new compounds can also be estimated by the Diazepam Receptor Binding Assay in vitro, e.g. as described in Nature 266, 732 (1977) or Proc. Nat. Acad. Sci. USA 74, 3805 (1977). Diazepam binds specifically and with high affinity to crude synaptosomal membrane preparations from rat fore-brain. […] When tritiated diazepam is used, the interaction of other drugs with said receptor can be readily assessed thus: Membranes from rat fore-brain are incubated at 0°-5° with tritiated diazepam and various concentrations of the test substances in a physiological medium at the pH=7.5. The membranes, containing the receptors with various amounts of tritiated diazepam, are filtered onto glass fiber filters, which are then […] in a liquid scintillation counter.

| Structure (SMILES) | pIC50 |
| --- | --- |
| CNC1=Nc2ccc(Cl)cc2C(c2ccccc2)=[N+]([O-])C1 [chlordiazepoxide] | 6.40 |
| CN1C(=O)CN=C(c2ccccc2)c2cc(Cl)ccc21 [diazepam] | 8.30 |
